Data taken from patent US20050222146A1, “N-substituted-n-sulfonylaminocyclopropane compounds and pharmaceutical use thereof” (priority 2003, published 2005).

Assays:
aggrecanase-1 = target: T1, aggrecanase-1 (Homo sapiens, UniProt O75173); test: Aggrecanase-1 inhibitory action, Particle Assay (GAG release from aggrecan-containing polyacrylamide particles); type: biochemical; conditions: 37° C. for 15 hr, read-out: Experimental Example 1 IC50 AG1
T1 sequence (O75173 213-837): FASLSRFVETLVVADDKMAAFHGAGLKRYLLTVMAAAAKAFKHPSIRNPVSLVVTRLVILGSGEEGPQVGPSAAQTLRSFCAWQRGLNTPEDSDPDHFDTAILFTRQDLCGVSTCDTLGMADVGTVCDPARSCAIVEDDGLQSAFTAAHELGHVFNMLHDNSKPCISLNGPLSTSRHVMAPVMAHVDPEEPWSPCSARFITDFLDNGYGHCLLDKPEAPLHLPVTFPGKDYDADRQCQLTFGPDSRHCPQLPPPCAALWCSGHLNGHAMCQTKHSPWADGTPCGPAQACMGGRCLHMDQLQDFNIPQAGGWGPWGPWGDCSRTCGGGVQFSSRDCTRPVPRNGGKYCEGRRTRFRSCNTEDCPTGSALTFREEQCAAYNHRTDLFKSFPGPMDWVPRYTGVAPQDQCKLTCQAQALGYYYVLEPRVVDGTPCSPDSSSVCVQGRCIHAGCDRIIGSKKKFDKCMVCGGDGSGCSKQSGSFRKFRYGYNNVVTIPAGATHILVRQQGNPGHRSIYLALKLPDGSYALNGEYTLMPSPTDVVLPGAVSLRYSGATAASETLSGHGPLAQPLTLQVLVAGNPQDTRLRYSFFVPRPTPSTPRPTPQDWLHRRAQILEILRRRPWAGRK
Outline: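 Enzyme and test compound (DMSO dilutions) in Tris-HCl buffer incubated with aggrecan-containing polyacrylamide particles at 37 °C for 15 hr. Released GAG in supernatant quantified with 1,9-dimethylmethylene blue at 595 nm against whale chondroitin sulfate standard; % inhibition versus enzyme-free and inhibitor-free wells gives IC50 (μM).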

MMP-1 = target: T2, MMP-1 (Homo sapiens, UniProt P03956); test: MMP-1 inhibitory action, Type I collagen Activity Measurement kit (FITC-labeled collagen type I); type: biochemical; conditions: 37° C. for 3 hr, read-out: Experimental Example 2 IC50 MMP1
T2 sequence (P03956 100-469): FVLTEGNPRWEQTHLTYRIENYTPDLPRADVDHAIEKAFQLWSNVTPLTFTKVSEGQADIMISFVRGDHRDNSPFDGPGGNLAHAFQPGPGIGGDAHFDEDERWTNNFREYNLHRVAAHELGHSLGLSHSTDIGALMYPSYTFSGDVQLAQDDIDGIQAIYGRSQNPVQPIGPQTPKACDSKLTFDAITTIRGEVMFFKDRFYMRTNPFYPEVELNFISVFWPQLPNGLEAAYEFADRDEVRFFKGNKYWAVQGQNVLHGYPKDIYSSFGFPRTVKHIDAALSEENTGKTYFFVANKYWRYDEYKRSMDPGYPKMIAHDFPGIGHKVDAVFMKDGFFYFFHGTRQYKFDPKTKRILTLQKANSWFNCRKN

| SMILES | IC50 (aggrecanase-1) [µM] | IC50 (MMP-1) [µM] |
| --- | --- | --- |
| O=C(O)CN([C@]1(C(=O)O)C[C@H]1c1cccc(O)c1)S(=O)(=O)c1ccc(-c2ccc(Cl)cc2)cc1 (relative stereo) [Example 1-66, (1R*,2S*)-1-[carboxymethyl-(4′-chloro-biphenyl-4-sulfonyl)-amino]-2-(3-hydroxy-phenyl)-cyclopropanecarboxylic acid] | < 0.1 | ≥ 10 |
| CC(C)(C)OC(=O)N1CCC(Oc2cccc([C@H]3C[C@]3(C(=O)O)N(CC(=O)O)S(=O)(=O)c3ccc(-c4ccc(Cl)cc4)cc3)c2)CC1 (relative stereo) [Example 1-67, 4-(3-{(1R*,2S*)-2-Carboxy-2-[carboxymethyl-(4′-chloro-biphenyl-4-sulfonyl)-amino]-cyclopropyl}-phenoxy)-piperidine-1-carboxylic acid tert-butyl ester] | < 0.1 | ≥ 10 |
| O=C(O)CN([C@]1(C(=O)O)C[C@H]1c1cccc(OC2CCNCC2)c1)S(=O)(=O)c1ccc(-c2ccc(Cl)cc2)cc1 (relative stereo) [Example 1-68, (1R*,2S*)-1-[carboxymethyl-(4′-chloro-biphenyl-4-sulfonyl)-amino]-2-[3-(piperidin-4-yloxy)-phenyl]-cyclopropanecarboxylic acid] | < 1 | ≥ 10 |
| O=C(O)c1cccn1CCN([C@]1(C(=O)O)C[C@H]1c1ccccc1)S(=O)(=O)c1ccc(-c2ccc(Cl)cc2)cc1 (relative stereo) [Example 1-69, 1-{2-[((1R*,2S*)-1-carboxy-2-phenyl-cyclopropyl)-(4′-chloro-biphenyl-4-sulfonyl)-amino]-ethyl}-1H-pyrrole-2-carboxylic acid] | < 1 | ≥ 10 |
| CC(C)(C)OC(=O)N1CCC([C@H]2C[C@]2(C(=O)O)N(Cc2cccc(C(=O)O)c2)S(=O)(=O)c2ccc(-c3ccc(Cl)cc3)cc2)CC1 (relative stereo) [Example 1-70, 4-{(1R*,2S*)-2-carboxy-2-[(3-carboxy-benzyl)-(4′-chloro-biphenyl-4-sulfonyl)-amino]-cyclopropyl}-piperidin-1-carboxylic acid tert-butyl ester] | < 1 | ≥ 10 |
| O=C(O)[C@@]1(N(Cc2nsc(=O)[nH]2)S(=O)(=O)c2ccc(-c3ccc(Cl)cc3)cc2)C[C@H]1c1ccccc1 (relative stereo) [Example 1-71, (1R*,2S*)-1-[(4′-chloro-biphenyl-4-sulfonyl)-(5-oxo-4,5-dihydro-[1,2,4]thiadiazol-3-ylmethyl)-amino]-2-phenyl-cyclopropanecarboxylic acid] | < 1 | ≥ 10 |
| O=C(O)[C@@]1(N(Cc2noc(=O)[nH]2)S(=O)(=O)c2ccc(-c3ccc(Cl)cc3)cc2)C[C@H]1c1cccc(Oc2ccccc2)c1 (relative stereo) [Example 1-72, (1R*,2S*)-1-[(4′-chloro-biphenyl-4-sulfonyl)-(5-oxo-4,5-dihydro-[1,2,4]oxadiazol-3-ylmethyl)-amino]-2-(3-phenoxy-phenyl)-cyclopropanecarboxylic acid] | < 0.1 | ≥ 10 |
| O=C(O)c1ncccc1CN([C@]1(C(=O)O)C[C@H]1c1ccccc1)S(=O)(=O)c1ccc(-c2ccc(Cl)cc2)cc1 (relative stereo) [Example 1-73, 3-{[((1R*, 2S*)-1-carboxy-2-phenyl-cyclopropyl)-(4′-chloro-biphenyl-4-sulfonyl)-amino]-methyl}-pyridin-2-carboxylic acid] | < 1 | ≥ 10 |
| O=C(O)[C@@]1(N(CCNc2nnn[nH]2)S(=O)(=O)c2ccc(-c3ccc(Cl)cc3)cc2)C[C@H]1c1ccccc1 (relative stereo) [Example 1-77, (1R*,2S*)-1-{(4′-chloro-biphenyl-4-sulfonyl)-[2-(1H-tetrazol-5-ylamino)-ethyl]-amino}-2-phenyl-cyclopropanecarboxylic acid] | < 1 | ≥ 10 |
| O=C(O)c1nccn1CCN([C@]1(C(=O)O)C[C@H]1c1ccccc1)S(=O)(=O)c1ccc(-c2ccc(Cl)cc2)cc1 (relative stereo) [Example 1-78, 1-{2-[((1R*,2S*)-1-carboxy-2-phenyl-cyclopropyl)-(4′-chloro-biphenyl-4-sulfonyl)-amino]-ethyl}-1H-imidazole-2-carboxylic acid] | < 1 | ≥ 10 |
| O=C(O)[C@@]1(N(CCNS(=O)(=O)C(F)(F)F)S(=O)(=O)c2ccc(-c3ccc(Cl)cc3)cc2)C[C@H]1c1cccc(Oc2ccccc2)c1 (relative stereo) [Example 1-81, (1R*,2S*)-1-[(4′-chloro-biphenyl-4-sulfonyl)-(2-trifluoromethanesulfonylamino-ethyl)-amino]-2-(3-phenoxy-phenyl)-cyclopropanecarboxylic acid] | < 1 | ≥ 10 |
| CCN(CC)CCNc1cccc([C@@H]2C[C@@]2(C(=O)O)N(Cc2cccc(C(=O)O)c2)S(=O)(=O)c2ccc(-c3ccc(Cl)cc3)cc2)c1 (relative stereo) [Example 1-85, 3-{[{(1R*,2S*)-1-carboxy-2-[3-(2-diethylamino-ethylamino)-phenyl]-cyclopropyl}-(4′-chloro-biphenyl-4-sulfonyl)-amino]-methyl}-benzoic acid] | < 1 | ≥ 10 |
| O=C(O)c1cccc(CN([C@]2(C(=O)O)C[C@H]2c2cccc(Nc3ccccn3)c2)S(=O)(=O)c2ccc(-c3ccc(Cl)cc3)cc2)c1 (relative stereo) [Example 1-86, 3-{[{(1R*,2S*)-1-carboxy-2-[3-(pyridin-2-ylamino)-phenyl]-cyclopropyl}-(4′-chloro-biphenyl-4-sulfonyl)-amino]-methyl}benzoic acid] | < 0.1 | ≥ 10 |
| O=C(O)c1cccc(CN([C@]2(C(=O)O)C[C@H]2c2cccc(OCCO)c2)S(=O)(=O)c2ccc(-c3ccc(Cl)cc3)cc2)c1 (relative stereo) [Example 1-88, 3-{[{(1R*,2S*)-1-carboxy-2-[3-(2-hydroxy-ethoxy)-phenyl]-cyclopropyl}-(4′-chloro-biphenyl-4-sulfonyl)-amino]-methyl}-benzoic acid] | < 0.1 | ≥ 10 |
| O=C(O)[C@@]1(N(CCNS(=O)(=O)C(F)(F)F)S(=O)(=O)c2ccc(-c3ccc(Cl)cc3)cc2)C[C@H]1c1cccc(NCCN2CCCCC2)c1 (relative stereo) [Example 1-89, (1R*,2S*)-1-[(4′-chloro-biphenyl-4-sulfonyl)-(2-trifluoromethanesulfonylamino-ethyl)-amino]-2-[3-(2-piperidin-1-yl-ethylamino)-phenyl]-cyclopropanecarboxylic acid] | < 1 | ≥ 10 |
| O=C(O)[C@@]1(N(CCNS(=O)(=O)C(F)(F)F)S(=O)(=O)c2ccc(-c3ccc(Cl)cc3)cc2)C[C@H]1c1cccc(NS(=O)(=O)CCN2CCCCC2)c1 (relative stereo) [Example 1-90, (1R*,2S*)-1-[(4′-chloro-biphenyl-4-sulfonyl)-(2-trifluoromethanesulfonylamino-ethyl)-amino]-2-[3-(2-piperidin-1-yl-ethanesulfonylamino)-phenyl]-cyclopropanecarboxylic acid] | < 1 | ≥ 10 |
| O=C(O)c1cccc(CN([C@]2(C(=O)O)C[C@H]2c2cccc(NCCN3CCCCC3)c2)S(=O)(=O)c2ccc(-c3ccc(Cl)cc3)cc2)c1 (relative stereo) [Example 1-91, 3-{[{(1R*,2S*)-1-carboxy-2-[3-(2-piperidin-1-yl-ethylamino)-phenyl]-cyclopropyl}-(4′-chloro-biphenyl-4-sulfonyl)-amino]-methyl}-benzoic acid] | < 1 | ≥ 10 |
| O=C(O)CCCN([C@]1(C(=O)O)C[C@H]1c1ccccc1)S(=O)(=O)c1ccc(-c2ccc(Cl)cc2)cc1 (relative stereo) [Example 1-93, (1R*,2S*)-1-[(3-carboxy-propyl)-(4′-chloro-biphenyl-4-sulfonyl)-amino]-2-phenyl-cyclopropanecarboxylic acid] | < 1 | ≥ 10 |
| O=C(CO)NCCN([C@]1(C(=O)O)C[C@H]1c1ccccc1)S(=O)(=O)c1ccc(-c2ccc(Cl)cc2)cc1 (relative stereo) [Example 1-96, (1R*,2S*)-1-{(4′-chloro-biphenyl-4-sulfonyl)-[2-(2-hydroxy-acetylamino)-ethyl]-amino}-2-phenyl-cyclopropanecarboxylic acid] | < 1 | ≥ 10 |
